According to US20250297035A1, “A PEPTIDE AND THE SELECTION METHOD THEREOF” (THE HONG KONG UNIVERSITY OF SCIENCE AND TECHNOLOGY, priority 2021, published 2025):
Where two headings read alike, the source gives them in different places. Where a SMILES comes first, the peptide text is derived from it. [ ]: non-standard residue; d: D form. The star is where a group is joined. Fmoc = O=C(OCC1c2ccccc2-c2ccccc21)*; 12Ado = NCCCCCCCCCCCC(=O)O; StBu = CC(C)(C)S*

Test: MTT assay, cytotoxicity of the peptide
Type: cell-based
Conditions: read-out: cell viability
Text: MTT assay was applied to evaluate the cytotoxicity effect of the peptide on HeLa, MCF-7, SK-N-MC, HEK293 and RAW264.7 cells (FIG. 12).

Measured: viability

CC(C)[C@H](NC(=O)[C@H](CCCCN)NC(=O)[C@H](CCCCN)NC(=O)[C@H](CCCCN)NC(=O)[C@H](CCCCN)NC(=O)[C@H](CCCCN)NC(=O)[C@@H]1CCCN1C(=O)OCC1c2ccccc2-c2ccccc21)C(=O)NCC(=O)N[C@@H](Cc1c[nH]cn1)C(=O)N[C@@H](Cc1c[nH]cn1)C(=O)N[C@@H](Cc1c[nH]cn1)C(=O)N[C@@H](Cc1c[nH]cn1)C(=O)NCCCCCCCCCCCC(=O)N[C@@H](CSSC(C)(C)C)C(=O)N[C@@H](Cc1c[nH]cn1)C(=O)N[C@@H](Cc1c[nH]cn1)C(=O)N[C@@H](CSSC(C)(C)C)C(=O)N[C@@H](CSSC(C)(C)C)C(=O)N[C@@H](Cc1c[nH]cn1)C(=O)N[C@@H](Cc1c[nH]cn1)C(=O)N[C@@H](CSSC(C)(C)C)C(=O)NCC(=O)N[C@@H](CO)C(=O)N1CCC[C@H]1C(=O)N[C@@H](Cc1c[nH]cn1)C(=O)N[C@@H](Cc1c[nH]cn1)C(=O)N[C@@H](CC(=O)O)C(=O)O [peptide_13, Fmoc-PKKKKKVG-HHHH (SEQ ID NO: 31)-C12-CstBuHHCstBuCstBuHHCstBuGSPHHD (SEQ ID NO: 39)] (Fmoc-PKKKKKVGHHHH[12Ado]C(StBu)HHC(StBu)C(StBu)HHC(StBu)GSPHHD-OH; C-terminus assumed)
> 80%: human, HEK293 cells, peptide concentration up to 4 μM | human, HeLa cells, peptide concentration up to 8 μM | human, MCF-7 cells, peptide concentration up to 8 μM | human, SK-N-MC cells, peptide concentration up to 4 μM | mouse, RAW264.7 cells, peptide concentration up to 4 μM
